Laboratory results: patent US7057059B2, “Tumor-inhibiting platinum (II) oxalate complexes” (Faustus Forschungs CIE. Translational Cancer Research GmbH, priority 2002, dated 2006)

Legend:
[1] = tested on: Female, tumor-bearing B6D2F1 mouse; assay: In vivo efficacy study: survivors on day 14 after tumor transplantation; conditions: for Survivors/total number: Qd×5, day 14 after tumor transplantation; for animals still alive on day 14: highest dosage level
Source text: Female, tumor-bearing B6D2F1 mouse, day 14 after tumor transplantation.

[2] = MTD study on animals free of tumors; conditions: in vivo
animals free of tumors = assay: MTD study on animals free of tumors; conditions: on day 5, at MTD 10 mg/kg Qd×5
leukaemia L1210 = assay: L1210 leukaemia in the mouse; type: in vivo; conditions: for effectiveness (survival to the end of the experiment): 3 mg/kg and 6 mg/kg, 21 day study
Source text: FIG. 4 is a bar graph of the results of the effectiveness of (4-methyl-trans-chxn)Pt(ox) in comparison to I-OHP in leukaemia L1210 in the mouse at various dosages over a 21 day study.

[3] = tested on: 41M (adenocarcinoma of the ovary); type: cell-based; conditions: cell line 41M, MTT, 96 h
Method: (§1) The cytotoxicity of the compounds according to Examples 1 and 2 was tested by using the following cell lines 41M, CH1 and SW480. In this respect the following method was selected:
(§2) In this regard, adherent monolayer cultures of the following cell lines were used: 41M (adenocarcinoma of the ovary), CH1 (adenocarcinoma of the ovary), SW480 (adenocarcinoma of the colon; primary resistance to cisplatinum).
(§3) Culture conditions: The cells were kept in 75 cm^2 culture flasks at 37° C. and moist atmosphere (5% CO2). Minimal Essential Medium (MEM) was used as culture medium, with 2 mmol/l I-glutamine, 1 mmol/l sodium pyruvate, 50 IU/ml penicillin, 50 μg/ml streptomycin and 10% heat-inactivated foetal bovine serum.
(§4) Test execution: Cell suspensions were obtained from subconfluent cultures by treatment with trypsin and seeded in defined density in 96-well microculture plates. The initial density was selected such that for the complete test duration an exponential growth of the cultures was guaranteed. For the cell line 41M this was 4·10^4 cells/ml, for CH1 1.25·10^4 cells/ml and for SW480 1.5·10^4 cells/ml. The plates were incubated for 24 h under standard conditions to achieve cell establishment. Then the compounds to be tested were introduced in ten-staged concentration series in the culture medium (without addition of organic solvents or dissolving agents) into the plates and left for the complete test duration (96 h). Per experiment each concentration was tested on eight microcultures of the same cell line. At the end of the experiment the respective number of living cells in the microculture was determined spectrophotometrically (at 550 nm) using the MTT-dye reaction in relationship to the untreated control cultures. Equally, the number of living cells in microculture plates started in parallel was quantified at the start of the active substance exposition. […] The mean values were used for the evaluation.

[4] = tested on: CH1 (adenocarcinoma of the ovary); type: cell-based; conditions: cell line CH1, MTT, 96 h
Method: as §1, §2, §3, §4

[5] = tested on: SW480 (adenocarcinoma of the colon; primary resistance to cisplatinum); type: cell-based; conditions: cell line SW480, MTT, 96 h
Method: as §1, §2, §3, §4

CCC1CCC2[NH][Pt]3([NH]C2C1)[O]C(=O)C(=O)[O]3 (stereo not drawn) [[(4-ethyl-trans-chxn)Pt(ox)], (SP-4-3)-(4-ethyl-trans-cyclohexane-1,2-diamine)oxalatoplatinum (II)]
Survivors/total number ([1]; dose 1.34 mg/kg): 5/6 | Survivors/total number ([1]; dose 2.68 mg/kg): 6/6 | Survivors/total number ([1]; dose 5.35 mg/kg): 6/6 | animals still alive on day 14 [1]: 6/6 | MTD at 5 days [2]: 10 mg/kg | weight loss (animals free of tumors): 5%

O=C1[O][Pt]2([NH]C3CCCC[C@H]3[NH]2)[O]C1=O (stereo partly shown) [Oxaliplatinum, oxaliplatinum]
Survivors/total number ([1]; dose 1.25 mg/kg): 5/6 | Survivors/total number ([1]; dose 2.50 mg/kg): 6/6 | Survivors/total number ([1]; dose 5.00 mg/kg): 0/6 | animals still alive on day 14 [1]: death of all animals | effectiveness (survival to the end of the experiment) (leukaemia L1210): deaths already occurred | MTD at 5 days [2]: 5 mg/kg

O=C(O)C(=O)O.[NH-][C@@H]1CCCC[C@H]1[NH-].[Pt+2] [[(trans-chxn)Pt(ox)]]
GL50 [3]: 0.99 µM | IC50 [3]: 4.2 µM | TGI [3]: 5.0 µM | Gl50 [4]: 0.54 µM | IC50 [4]: 700 nM | TGI [4]: 2.0 µM | Gl50 [5]: 0.8 µM | IC50 [5]: 1600 nM | TGI [5]: 21.8 µM

(SP-4-3)-(4-methyl-trans-cyclohexane-1,2-diamine)oxalatoplatinum (II) [[(4-methyl-trans-chxn)Pt(ox)]]
GL50 [3]: 0.91 ± 0.16 µM | IC50 [3]: 2.4 µM | TGI [3]: 4.2 ± 2.6 µM | Gl50 [4]: 0.22 µM | IC50 [4]: 340 nM | TGI [4]: 0.93 µM | Gl50 [5]: 0.31 µM | IC50 [5]: 650 nM | TGI [5]: 9.0 µM | Survivors/total number ([1]; dose 1.30 mg/kg): 6/6 | Survivors/total number ([1]; dose 2.60 mg/kg): 5/6 | Survivors/total number ([1]; dose 5.20 mg/kg): 4/6 | animals still alive on day 14 [1]: 4/6 | effectiveness (survival to the end of the experiment) (leukaemia L1210): all animals survived the experiment to the end | tolerance at high dosage (leukaemia L1210; 24 mg/kg, in comparison to I-OHP): better tolerance | weight loss (animals free of tumors): 5%

O=C(O)C(=O)O.[NH-]C1CCCCC1[NH-].[Pt+2] (stereo not drawn) [[(trans-S,S-chxn)Pt(ox)]]
GL50 [3]: 1.11 µM | IC50 [3]: 3.2 µM | TGI [3]: 4.4 µM | Gl50 [4]: 1.14 µM | IC50 [4]: 1500 nM | TGI [4]: 4.2 µM | Gl50 [5]: 2.2 µM | IC50 [5]: 4200 nM | TGI [5]: 47.8 µM
